According to patent US7994159B2, “c-Kit kinase inhibitor” (Eisai R&D Management Co., Ltd., priority 2003, dated 2011):

Key:
[1] = test system: small cell lung cancer cell line H-526 expressing c-Kit kinase; experiment: Effect on proliferation of H-526 cells stimulated by SCF (Cell Counting Kit-8); assay type: cell-based; conditions: Homo sapiens, NCI-H526, 7th day after addition of test substance, read-out: IC50, concentration required for 50% inhibition of the cell proliferation stimulated by SCF
Protocol: H-526 cells were cultured in a 5% CO2 incubator (37° C.) using an RPMI1640 medium (Nissui Pharmaceutical Co., Ltd.) containing 10% FCS (purchased from Cell Culture Technologies). After culturing, H-526 cells were washed with PBS three times and were suspended in an RPMI1640 medium containing 0.1% BSA (Sigma Corporation) (hereinafter abbreviated as “BSA-RPMI1640”) at 1.0×10^5 cells/ml. […] On the 7th day after addition of the test substance, 20 μl of Cell Counting Kit-8 (Dojin Laboratories) was added to the well and was cultured in a 5% CO2 incubator (37° C.) for about 2 hours. After color development, the absorbance of each well was determined using a MTP-32 plate reader (Colona Electric Co., Ltd.) at a measuring wavelength of 450 nm and at a reference wavelength of 660 nm. The absorbance of each well was subtracted by the absorbance of the well without addition of SCF, and then the ratio of the absorbance of the well with addition of the test substance to the ratio of the absorbance of the well without addition of the test substance was determined. This ratio was used to calculate the concentration of the test substance required for 50% inhibition of the cell proliferation (IC50).

H-526 tumor = experiment: Growth of H-526 tumor transplanted to nude mice; assay type: in vivo, Balb/c nu/nu mice; conditions: oral, twice daily for 14 days, FIG. 2
Protocol: H-526 cells were cultured in a 5% CO2 incubator (37° C.) using an RPMI1640 medium containing 10% FCS. After the culture medium was collected, H-526 cells were washed with PBS twice and were suspended in PBS at 5.0×10^7 cells/ml. This cell suspension (0.1 ml) was transplanted to the subcutaneous parts of the right flank of 6-week female Balb/c nu/nu mice (purchased from Charles River Laboratories, Inc.). After transplantation, administration of a test substance was started at the point the tumor volume reached approximately 150 mm^3, and thus, oral administration was conducted twice daily for a period of 14 days. The test substance was suspended in a 0.5% methylcellulose solution (Wako Pure Chemical Industries Co., Ltd.) so as to give a dose of 0.1 ml/10 g body weight.
The tumor volume was measured with a caliper twice weekly during the administration period. The long and short diameters of the tumor were measured with a caliper and the tumor volume was calculated according to the equation: ½×long diameter×short diameter×short diameter. Here, the experiment was conducted in a vehicle control group of 10 animals (solvent-administered group) as well as in a test substance administered group of 5 animals.

c-Kit kinase [2] = target: T1, c-Kit kinase (Homo sapiens, UniProt P10721); experiment: c-Kit kinase phosphorylation by SCF stimulation in H-526 cells (immunoblot, phospho-c-kit Tyr719); assay type: cell-based; set-up: in the small cell lung cancer cell line H-526 expressing c-Kit kinase; host or cells: H-526 small cell lung cancer cells; conditions: 1 hour test substance then 5 minutes SCF, FIG. 1
Protocol: H-526 cells were cultured in a 5% CO2 incubator (37° C.) using an RPMI1640 medium containing 10% FCS. After culturing, H-526 cells were washed with PBS three times and were suspended in a BSA-RPMI1640 medium at 5.0×10^5 cells/ml. Each 1 ml of this cell suspension was inoculated to the well of a 24-well plate and the suspension was cultured in a 5% CO2 incubator (37° C.) for 6 hours. After 6-hours culturing, 1 ml of BSA-RPMI1640 containing a diluted test substance was added to each well and culturing was carried out in a 5% CO2 incubator (37° C.) for 1 hour. […] After 5-minutes culturing, the cells were washed with PBS and 100 μl of SDS sample loading buffer was added to the cells to prepare a cell lysate sample. After the sample was heat-treated at 94° C. for 10 minutes, it was cryopreserved at -20° C. […] After electrophoresis, the sample was transferred to a PVDF membrane (Amersham Pharmacia Biotech Inc.) for 3 hours. The transferred membrane was subjected to immunoblot using a phospho-c-kit ([…]) antibody (Cell Signaling Technology Inc.) as a primary antibody and an anti-rabbit IgG, HRP-linked antibody (Cell Signaling Technology Inc.) as a secondary antibody. After the membrane was washed, it was developed with a Super Signal (Pierce Biotechnology, Inc.).

c-Kit kinase [3] = target: T1, c-Kit kinase; experiment: c-Kit kinase phosphorylation in H-526 tumor transplanted to nude mice (immunoblot); assay type: in vivo, Balb/c nu/nu mice; set-up: Compound 1 reduced phosphorylated c-Kit in tumor tissue when administered at 30 or 100 mg/kg; from tissue; host or cells: H-526 tumour grown subcutaneously in female Balb/c nu/nu mice; conditions: H-526 tumor in nude mice, FIG. 3
Protocol: 0.1 ml of a H-526 cell suspension prepared at a concentration of 5.0×10^7 cells/ml, was transplanted to the subcutaneous parts of the right latus of 6-week female Balb/c nu/nu mice (purchased from Charles River Laboratories, Inc.). The animals were then divided into a vehicle control group (solvent-administered group) and a test substance administered group at the point the tumor volume reached 300-1000 mm^3: the test substance was administered to the latter group. […] After centrifugation, the supernatant was protein quantified, and a 3×SDS sample loading buffer was added to prepare a cell lysate sample. Subsequently, the cell lysate was heat-treated at 94° C. for 10 minutes and cryopreserved at -20° C. […] After electrophoresis, the sample was transferred to a PVDF membrane (Amersham Pharmacia Biotech Inc.) for 3 hours. In order to assay phosphorylated c-Kit, c-Kit and β-actin, immunoblot was performed using a phospho-c-kit ([…]) antibody (Cell Signaling Technologies, Inc.), an anti c-Kit antibody (Cell Signaling Technologies, Inc.) and an anti β-actin antibody (Sigma) as a primary antibody and an anti-rabbit IgG, HRP-linked antibody (Cell Signaling Technologies, Inc.) as a secondary antibody. After the membrane was washed, it was developed with a Super Signal (Pierce Biotechnology, Inc.).

T1 sequence (P10721 26-976): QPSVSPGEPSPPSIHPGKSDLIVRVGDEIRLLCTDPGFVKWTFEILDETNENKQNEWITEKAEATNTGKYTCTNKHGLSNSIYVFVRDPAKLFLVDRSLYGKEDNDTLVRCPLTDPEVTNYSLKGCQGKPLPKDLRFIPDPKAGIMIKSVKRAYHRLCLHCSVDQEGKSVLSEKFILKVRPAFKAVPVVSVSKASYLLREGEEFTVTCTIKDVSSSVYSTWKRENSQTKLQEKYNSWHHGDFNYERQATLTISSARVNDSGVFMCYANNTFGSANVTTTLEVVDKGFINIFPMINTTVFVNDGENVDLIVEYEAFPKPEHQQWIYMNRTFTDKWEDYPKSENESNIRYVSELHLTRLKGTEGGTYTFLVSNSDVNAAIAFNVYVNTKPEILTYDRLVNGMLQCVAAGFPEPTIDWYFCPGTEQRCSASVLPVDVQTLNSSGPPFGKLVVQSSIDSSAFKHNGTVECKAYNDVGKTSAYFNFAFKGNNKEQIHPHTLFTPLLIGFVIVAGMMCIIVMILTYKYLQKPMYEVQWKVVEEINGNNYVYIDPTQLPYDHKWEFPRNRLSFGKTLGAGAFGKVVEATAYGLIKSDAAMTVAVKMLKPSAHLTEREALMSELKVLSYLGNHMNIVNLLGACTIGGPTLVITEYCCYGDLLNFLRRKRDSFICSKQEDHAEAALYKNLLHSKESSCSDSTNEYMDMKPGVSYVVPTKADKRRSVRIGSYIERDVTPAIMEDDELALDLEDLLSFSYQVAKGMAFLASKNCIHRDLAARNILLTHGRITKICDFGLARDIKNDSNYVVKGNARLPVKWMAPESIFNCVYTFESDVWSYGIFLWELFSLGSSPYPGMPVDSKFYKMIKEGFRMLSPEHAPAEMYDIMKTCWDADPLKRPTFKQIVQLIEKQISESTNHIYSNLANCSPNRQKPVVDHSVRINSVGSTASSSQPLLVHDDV

COc1cc2nccc(Oc3ccc(NC(=O)NC4CC4)c(Cl)c3)c2cc1C(N)=O [Compound 1, 4-(3-Chloro-4-(cyclopropylaminocarbonyl)aminophenoxy)-7-methoxy-6-quinolinecarboxamide]
IC50 [1]: 9.36 nM | growth of nude mouse transplanted H-526 tumor (tumor volume) (H-526 tumor): suppressed the growth of the nude mouse transplanted H-526 tumor in a dose-dependent manner | suppression of c-Kit kinase phosphorylation in the presence of SCF (c-Kit kinase [2]): suppressed the c-Kit kinase phosphorylation that would take place in the presence of SCF in a concentration-dependent manner | c-Kit and β-actin in tumor tissue (c-Kit kinase [3]; 30 or 100 mg/kg): remained unchanged | phosphorylated c-Kit in tumor tissue (c-Kit kinase [3]; 30 or 100 mg/kg): completely inhibited phosphorylation

CCNC(=O)Nc1ccc(Oc2ccnc3cc(OC)c(C(N)=O)cc23)cc1Cl [Compound 2, 4-(3-Chloro-4-(ethylaminocarbonyl)aminophenoxy)-7-methoxy-6-quinolinecarboxamide]
IC50 [1]: 12.8 nM

CONC(=O)c1cc2c(Oc3ccc(NC(=O)NC4CC4)c(Cl)c3)ccnc2cc1OC [Compound 3, N6-Methoxy-4-(3-chloro-4-(((cyclopropylamino)carbonyl)amino)phenoxy)-7-methoxy-6-quinolinecarboxamide]
IC50 [1]: 214 nM

CCNC(=O)Nc1ccc(Oc2ccnc3cc(OC)c(C(=O)NOC)cc23)cc1Cl [Compound 4, N6-Methoxy-4-(3-chloro-4-(((ethylamino)carbonyl)amino)phenoxy)-7-methoxy-6-quinolinecarboxamide]
IC50 [1]: 56.3 nM

Cc1ccc(NC(=O)c2ccc(CN3CCN(C)CC3)cc2)cc1Nc1nccc(-c2cccnc2)n1 [STI571, reference compound]
anti-tumor effect on nude mouse transplanted H-526 tumor (H-526 tumor; 160 mg/kg): little anti-tumor effect | phosphorylated c-Kit in tumor tissue (c-Kit kinase [3]; 160 mg/kg): partially inhibited phosphorylation
